Measured values as given in patent publication US7750148B2, “Intermediate compound for the production of β-lactamase-resistant cephalosporin ester compounds and salts thereof” (Zhejiang Yongning Pharmaceutical Factory, priority 2003, dated 2010).
≈ marks a conversion by molar mass, not a printed value. Like-named read-outs stand apart in the source and are kept apart here.

Experiments:
[1] = system: Diplococcus lanceolatus 31002; experiment: In vitro antibacterial activity (MIC, agar double dilution); format: cell-based
Source text: (§1) tested samples YR-1, YR-2 were the ones prepared in example 1 and example 5 respectively, control samples were cefetamet sodium (CTM), cefuroxime sodium (CRX), cefetamet sodium+sulbactam sodium (CTM+SBT) (molar ratio 1:1), cefuroxime+sulbactam sodium (CRX+SBT) (molar ratio 1:1). All control samples (have been sold on the market) were supplied by Zhejiang Yongning pharmaceutical factory.
(§2) Staphylococcus aureus 26003, Diplococcus lanceolatus 31002, E. coli 44102, Shigella sonnet 51081, Shigella bogdii 51313, Shigella flexneri 51573, Proteus mirabilis 49005, Bacillus proteus 49085, Proteus morganii 49086, Pseudomonas aeruginosa 10124, Bacillus pneumoniae 46101, Salmonella enteritidis 50041, Salmonella typhi 50097, Citrobacter 48017, Candida ciferii 41002 were supplied by Shanghai Hygienic and Antiepidemic Station.
(§3) Mueller-Hinton Agar (M.H) culture medium, batch number 20040528 (Shanghai Reagent Supply Research Center, China Diarrhea Disease Control).
(§4) Adopted agar double dilution, inoculated using multipoint inoculator, inoculated 10^5CFU/ML each point, cultured for 24 hours at 37° C., observed and recorded the results, set the least concentration of the antibacterial drug that can inhibit bacteria growth as the minimum inhibitory concentration (MIC).

Shigella flexneri 51573 = experiment: as above; format: cell-based
Source text: as §1, §2, §3, §4

Shigella bogdii 51313 = experiment: as above; format: cell-based
Source text: as §1, §2, §3, §4

[2] = system: Staphylococcus aureus 26003; experiment: as above; format: cell-based
Source text: as §1, §2, §3, §4

[3] = system: Salmonella enteritidis 50041; experiment: as above; format: cell-based
Source text: as §1, §2, §3, §4

Proteus mirabilis 49005 = experiment: as above; format: cell-based
Source text: as §1, §2, §3, §4

Shigella sonnet 51081 = experiment: as above; format: cell-based
Source text: as §1, §2, §3, §4

E. coli 44102 = experiment: as above; format: cell-based
Source text: as §1, §2, §3, §4

Salmonella typhi 50097 = experiment: as above; format: cell-based; conditions: 10^5CFU/ML each point, 24 hours at 37° C.
Source text: as §1, §2, §3, §4

[4] = system: Bacillus pneumoniae 46101; experiment: as above; format: cell-based
Source text: as §1, §2, §3, §4

Bacillus proteus 49085 = experiment: as above; format: cell-based
Source text: as §1, §2, §3, §4

Candida ciferii 41002 = experiment: as above; format: cell-based
Source text: as §1, §2, §3, §4

[5] = system: Pseudomonas aeruginosa 10124; experiment: as above; format: cell-based
Source text: as §1, §2, §3, §4

Citrobacter 48017 = experiment: as above; format: cell-based
Source text: as §1, §2, §3, §4

[6] = Mouse maximum tolerable dose experiment (acute toxicity); format: in vivo, Kunming mice; conditions: for abnormalities in the organs after killed (autopsy) / symptoms of toxic reactions: 5 g/kg intragastric; for abnormalities in the organs after killed (autopsy): after 7 days observation; for symptoms of toxic reactions: fasted for 16 hours; for symptoms of toxic reactions / Death rate: 7 days observation; for Death rate / Death number during observation: 5 g/kg/24 hr intragastric
Description: tested samples (YR-1, YR-2) are the same as above.
Strain: Kunming mice; source: Animal Facility of Shanghai Institute of Pharmaceutical Industry; certificate number: Hudonghezhengzi No. 107; animal numbers: 20; Sex: same number of male and female mice; Body weight: 18-21 g; fast time: 16 hours.
Preparation of samples: 5 g/kg (prepared with 5% carboxymethyl cellulose CMC); volume accepted: 0.6 ml/20 g body weight/each time; administration times: once; dosage: 5 g/kg/24 hr
Intragastric Administration
20 mice, 10 male and 10 female, were given YR-1 or YR-2 via intragastric administration, observed manifestation of mice toxic symptom immediately after administration, recorded mice death number.
Observed manifestation of mice toxic symptom immediately after administration, observed twice each day (morning and evening).
Toxic reaction: recorded behaviors of mice, skin, respiration, urination and defecation, appetite, checked if there are abnormal secretions appeared in the nose, eye and mouth.
Observation period: 7 days, killed all the surviving mice after observation period, and autopsied to see if there is any abnormality existed in the mice organs.

[7] = system: Staphylococcus epidermidis 26069; experiment: In vitro antibacterial activity (MIC, agar double dilution); format: cell-based; conditions: Staphylococcus epidermidis 26069, 10^5CFU/ML each point, 24 hours at 37° C.
Source text: as §1
(§5) Staphylococcus epidermidis 26069 and Bacillus aerogenes 45102 were supplied by Beijing Drug & Biology Product Appraisal Bureau.
as §3, §4

Bacillus aerogenes 45102 = experiment: as above; format: cell-based
Source text: as §1, §5, §3, §4

[8] = system: Diplococcus lanceolatus 0031; experiment: as above; format: cell-based; conditions: Diplococcus lanceolatus 0031, 10^5CFU/ML each point, 24 hours at 37° C.
Source text: as §1
Diplococcus lanceolatus 0031 was supplied by Shanghai First People's Hospital.
as §3, §4

Proteus morganii 49086 = experiment: as above; format: cell-based; design: MIC (as restated in the conclusions): unit not given here; conditions: for antibacterial activities enhanced versus CTM or CRX used solely: YR-1 vs CTM, YR-2 vs CRX
Source text: as §1, §2, §3, §4

[9] = read-out: MIC of the drug to bacteria

CON=C(C(=O)NC1C(=O)N2C(C(=O)OCOC(=O)C3N4C(=O)CC4S(=O)(=O)C3(C)C)=C(COC(N)=O)CSC12)c1ccco1 (centres unmarked) [YR-2, 5-thia-1-aza-bicyclo [4,2,0] octane-2-ene-2-carboxylic acid, 7-[[(2-furane (methoxy imine)acetyl)amino]-3-[[(aminocarbonyloxy)oxy]methyl]-8-oxo-, [[3,3-dimethyl-4,4-dioxy-7-oxo-4-thia-1-aza-bicyclo[3,2,0]heptane-2-group]carbonyloxy]oxy]methyl ester]
MIC ([1]; 24 h, read-out: MIC of the drug to bacteria): 25 µg/mL
MIC (Shigella flexneri 51573; Shigella flexneri, 51573, 24 h, read-out: MIC of the drug to bacteria): 3.13 µg/mL
MIC (Shigella bogdii 51313; Shigella, 51313, 24 h, read-out: MIC of the drug to bacteria): 1.56 µg/mL
MIC ([2]; Staphylococcus aureus, 26003, 24 h, read-out: MIC of the drug to bacteria): 6.25 µg/mL
MIC ([3]; Salmonella enterica, ENTERITIDIS, 24 h, read-out: MIC of the drug to bacteria): 12.5 µg/mL
MIC (Proteus mirabilis 49005; Proteus mirabilis, 49005, 24 h, read-out: MIC of the drug to bacteria): 3.13 µg/mL
MIC (Shigella sonnet 51081; Shigella, 51081, 24 h, read-out: MIC of the drug to bacteria): 1.56 µg/mL
MIC (E. coli 44102; Escherichia coli, 44102, 24 h, read-out: MIC of the drug to bacteria): 12.5 µg/mL
MIC (Salmonella typhi 50097; Salmonella enterica, read-out: MIC of the drug to bacteria): 6.25 µg/mL
MIC ([4]; Klebsiella pneumoniae, 46101, 24 h, read-out: MIC of the drug to bacteria): 12.5 µg/mL
MIC (Bacillus proteus 49085; Bacillus, 49085, 24 h, read-out: MIC of the drug to bacteria): 0.78 µg/mL
MIC (Candida ciferii 41002; Candida, 41002, 24 h, read-out: MIC of the drug to bacteria): 50 µg/mL
MIC ([5]; Pseudomonas aeruginosa, 10124, 24 h, read-out: MIC of the drug to bacteria): 100 µg/mL
MIC (Citrobacter 48017; Citrobacter, 48017, 24 h, read-out: MIC of the drug to bacteria): 3.13 µg/mL
abnormalities in the organs after killed (autopsy) ([6]; Kunming mice): no abnormalities were observed in the organs
symptoms of toxic reactions ([6]; Kunming mice): no obvious abnormal symptoms of toxic reactions
LD50 at 7 days ([6]; both sexes, mouse, in vivo, po, 5 g/kg, Kunming mice, intragastric administration, once): > 5000 mg/kg
Death rate ([6]; female mice): 0%
Death number during observation ([6]; female mice, day 1): 0
Death number during observation ([6]; female mice, day 2): 0
Death number during observation ([6]; female mice, day 3): 0
Death number during observation ([6]; female mice, day 4): 0
Death number during observation ([6]; female mice, day 5): 0
Death number during observation ([6]; female mice, day 6): 0
Death number during observation ([6]; female mice, day 7): 0
Death rate ([6]; male mice): 0%
Death number during observation ([6]; male mice, day 1): 0
Death number during observation ([6]; male mice, day 2): 0
Death number during observation ([6]; male mice, day 3): 0
Death number during observation ([6]; male mice, day 4): 0
Death number during observation ([6]; male mice, day 5): 0
Death number during observation ([6]; male mice, day 6): 0
Death number during observation ([6]; male mice, day 7): 0
MIC [7, 9]: 0.78 µg/mL
MIC (Bacillus aerogenes 45102; Bacillus, 45102, 24 h, read-out: MIC of the drug to bacteria): 6.25 µg/mL
MIC [8, 9]: 0.78 µg/mL
MIC (Proteus morganii 49086; Morganella morganii, 49086, 24 h, read-out: MIC of the drug to bacteria): 25 µg/mL
MIC (Proteus morganii 49086; Morganella morganii, 49086, read-out: MIC (as restated in the conclusions)): 25000 µg/mL (≈ 37.3 mM)
antibacterial activities enhanced versus CTM or CRX used solely (Proteus morganii 49086; Proteus morganii 49086): four times

5-thia-1-aza-bicyclo [4,2,0] octane-2-ene-2-carboxylic acid, 7-[[(2-amino-4-thiazolyl) (methoxy imine) acetyl]amino]-3-methyl-8-oxo-, [[3,3-dimethyl-4,4-dioxy-7-oxo-4-thia-1-aza-bicyclo [3,2,0] heptane-2-group]carbonyloxy]oxy]methyl ester [YR-1]
MIC of the drug to bacteria ([1]; Diplococcus lanceolatus 31002, 10^5CFU/ML each point, 24 hours at 37° C.): 100 µg/mL
MIC of the drug to bacteria (Shigella flexneri 51573; Shigella flexneri 51573, 10^5CFU/ML each point, 24 hours at 37° C.): 0.39 µg/mL
MIC of the drug to bacteria (Shigella bogdii 51313; Shigella bogdii 51313, 10^5CFU/ML each point, 24 hours at 37° C.): 0.39 µg/mL
MIC of the drug to bacteria ([2]; Staphylococcus aureus 26003, 10^5CFU/ML each point, 24 hours at 37° C.): 100 µg/mL
MIC of the drug to bacteria ([3]; Salmonella enteritidis 50041, 10^5CFU/ML each point, 24 hours at 37° C.): 1.56 µg/mL
MIC of the drug to bacteria (Proteus mirabilis 49005; Proteus mirabilis 49005, 10^5CFU/ML each point, 24 hours at 37° C.): 0.098 µg/mL
MIC of the drug to bacteria (Shigella sonnet 51081; Shigella sonnet 51081, 10^5CFU/ML each point, 24 hours at 37° C.): 0.39 µg/mL
MIC of the drug to bacteria (E. coli 44102; E. coli 44102, 10^5CFU/ML each point, 24 hours at 37° C.): 1.56 µg/mL
MIC of the drug to bacteria (Salmonella typhi 50097): 1.56 µg/mL
MIC of the drug to bacteria ([4]; Bacillus pneumoniae 46101, 10^5CFU/ML each point, 24 hours at 37° C.): 0.78 µg/mL
MIC of the drug to bacteria (Bacillus proteus 49085; Bacillus proteus 49085, 10^5CFU/ML each point, 24 hours at 37° C.): 0.195 µg/mL
MIC of the drug to bacteria (Candida ciferii 41002; Candida ciferii 41002, 10^5CFU/ML each point, 24 hours at 37° C.): 0.78 µg/mL
MIC of the drug to bacteria ([5]; Pseudomonas aeruginosa 10124, 10^5CFU/ML each point, 24 hours at 37° C.): 100 µg/mL
MIC of the drug to bacteria (Citrobacter 48017; Citrobacter 48017, 10^5CFU/ML each point, 24 hours at 37° C.): 1.56 µg/mL
abnormalities in the organs after killed (autopsy) ([6]; Kunming mice): no abnormalities were observed in the organs
symptoms of toxic reactions ([6]; Kunming mice): no obvious abnormal symptoms of toxic reactions
Death rate ([6]; female mice): 0%
Death number during observation ([6]; female mice, day 1): 0
Death number during observation ([6]; female mice, day 2): 0
Death number during observation ([6]; female mice, day 3): 0
Death number during observation ([6]; female mice, day 4): 0
Death number during observation ([6]; female mice, day 5): 0
Death number during observation ([6]; female mice, day 6): 0
Death number during observation ([6]; female mice, day 7): 0
Death rate ([6]; male mice): 0%
Death number during observation ([6]; male mice, day 1): 0
Death number during observation ([6]; male mice, day 2): 0
Death number during observation ([6]; male mice, day 3): 0
Death number during observation ([6]; male mice, day 4): 0
Death number during observation ([6]; male mice, day 5): 0
Death number during observation ([6]; male mice, day 6): 0
Death number during observation ([6]; male mice, day 7): 0
MIC of the drug to bacteria [7]: 50 µg/mL
MIC of the drug to bacteria (Bacillus aerogenes 45102; Bacillus aerogenes 45102, 10^5CFU/ML each point, 24 hours at 37° C.): 0.39 µg/mL
MIC of the drug to bacteria [8]: 50 µg/mL
MIC (as restated in the conclusions) (Proteus morganii 49086; Proteus morganii 49086): 0.78
MIC of the drug to bacteria (Proteus morganii 49086; Proteus morganii 49086, 10^5CFU/ML each point, 24 hours at 37° C.): 0.78 µg/mL
antibacterial activities enhanced versus CTM or CRX used solely (Proteus morganii 49086; Proteus morganii 49086): one hundred times
